Results taken from ChEMBL document CHEMBL4265899, “Trisubstituted thiazoles as potent and selective inhibitors of Plasmodium falciparum protein kinase G (PfPKG)” (Bioorg Med Chem Lett, 2018).

Columns and labels:
[1] = biological target: cGMP-dependent protein kinase (Plasmodium falciparum, UniProt W7JX98); assay: Inhibition of Plasmodium falciparum protein kinase G
[2] = tested on: Plasmodium falciparum; assay: Antimalarial activity against Plasmodium falciparum after 48 hrs by microbeta scintillation counting-based [3H]-hypoxanthine incorporation assay; assay type: functional, organism-based
[3] = biological target: T1, Serine/threonine-protein kinase D1 (Homo sapiens) (UniProt Q15139); assay: Inhibition of human PKD1 at 100 nM
T1 sequence (whole entry): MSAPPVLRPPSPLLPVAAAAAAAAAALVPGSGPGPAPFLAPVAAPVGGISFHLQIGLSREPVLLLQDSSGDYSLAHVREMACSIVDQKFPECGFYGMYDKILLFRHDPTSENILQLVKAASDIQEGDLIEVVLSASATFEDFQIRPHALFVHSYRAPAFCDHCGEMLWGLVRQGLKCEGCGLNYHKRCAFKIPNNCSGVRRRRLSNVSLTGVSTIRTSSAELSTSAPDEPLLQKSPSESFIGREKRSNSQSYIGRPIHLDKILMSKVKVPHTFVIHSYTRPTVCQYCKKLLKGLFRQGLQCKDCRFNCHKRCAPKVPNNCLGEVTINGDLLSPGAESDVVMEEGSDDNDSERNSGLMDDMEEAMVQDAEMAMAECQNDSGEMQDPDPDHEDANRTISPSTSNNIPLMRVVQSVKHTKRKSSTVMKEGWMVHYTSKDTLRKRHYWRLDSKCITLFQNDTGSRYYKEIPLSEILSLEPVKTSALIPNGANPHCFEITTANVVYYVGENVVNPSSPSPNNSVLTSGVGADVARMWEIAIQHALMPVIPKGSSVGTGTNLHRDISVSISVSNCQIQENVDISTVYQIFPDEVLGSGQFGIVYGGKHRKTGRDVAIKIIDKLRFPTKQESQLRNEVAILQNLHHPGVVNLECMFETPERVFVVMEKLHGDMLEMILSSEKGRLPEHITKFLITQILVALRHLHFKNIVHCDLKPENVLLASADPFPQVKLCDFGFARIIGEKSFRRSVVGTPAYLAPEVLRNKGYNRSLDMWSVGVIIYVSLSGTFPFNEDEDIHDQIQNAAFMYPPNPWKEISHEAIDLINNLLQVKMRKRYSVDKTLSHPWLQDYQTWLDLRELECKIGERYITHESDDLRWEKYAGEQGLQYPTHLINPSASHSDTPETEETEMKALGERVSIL

[4] = biological target: Casein kinase I isoform alpha (Homo sapiens) (UniProt P48729); assay: Inhibition of human CK1 at 100 nM
Casein kinase I isoform alpha (Homo sapiens), sequence (P48729 2-337 limits assumed): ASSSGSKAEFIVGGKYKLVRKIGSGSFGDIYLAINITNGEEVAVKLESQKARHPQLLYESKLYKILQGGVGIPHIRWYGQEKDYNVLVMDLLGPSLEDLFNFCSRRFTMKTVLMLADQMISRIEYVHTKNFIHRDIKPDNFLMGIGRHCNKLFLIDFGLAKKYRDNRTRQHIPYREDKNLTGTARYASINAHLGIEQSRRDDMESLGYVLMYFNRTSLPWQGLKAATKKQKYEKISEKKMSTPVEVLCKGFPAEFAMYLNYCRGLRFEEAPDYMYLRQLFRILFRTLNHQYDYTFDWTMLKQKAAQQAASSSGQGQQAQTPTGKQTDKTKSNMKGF

[5] = biological target: Tyrosine-protein kinase Lck (Homo sapiens) (UniProt P06239); assay: Inhibition of human LCK at 100 nM
Tyrosine-protein kinase Lck (Homo sapiens), sequence (P06239 2-509 limits assumed): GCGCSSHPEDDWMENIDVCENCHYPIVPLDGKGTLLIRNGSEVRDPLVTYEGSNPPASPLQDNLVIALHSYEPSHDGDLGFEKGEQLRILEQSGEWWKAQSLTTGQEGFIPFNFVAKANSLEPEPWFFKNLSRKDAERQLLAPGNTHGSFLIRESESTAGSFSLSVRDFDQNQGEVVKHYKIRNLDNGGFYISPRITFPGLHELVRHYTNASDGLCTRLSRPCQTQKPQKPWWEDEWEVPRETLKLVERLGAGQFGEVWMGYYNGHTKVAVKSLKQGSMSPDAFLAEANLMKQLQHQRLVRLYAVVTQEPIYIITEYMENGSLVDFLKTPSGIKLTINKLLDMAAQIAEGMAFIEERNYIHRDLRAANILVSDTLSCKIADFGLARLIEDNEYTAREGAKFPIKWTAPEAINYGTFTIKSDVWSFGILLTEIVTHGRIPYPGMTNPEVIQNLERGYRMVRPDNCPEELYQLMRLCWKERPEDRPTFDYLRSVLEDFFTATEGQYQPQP

[6] = biological target: Tyrosine-protein kinase Yes (Homo sapiens) (UniProt P07947); assay: Inhibition of human YES1 at 100 nM
Tyrosine-protein kinase Yes (Homo sapiens), sequence (P07947 2-543 limits assumed): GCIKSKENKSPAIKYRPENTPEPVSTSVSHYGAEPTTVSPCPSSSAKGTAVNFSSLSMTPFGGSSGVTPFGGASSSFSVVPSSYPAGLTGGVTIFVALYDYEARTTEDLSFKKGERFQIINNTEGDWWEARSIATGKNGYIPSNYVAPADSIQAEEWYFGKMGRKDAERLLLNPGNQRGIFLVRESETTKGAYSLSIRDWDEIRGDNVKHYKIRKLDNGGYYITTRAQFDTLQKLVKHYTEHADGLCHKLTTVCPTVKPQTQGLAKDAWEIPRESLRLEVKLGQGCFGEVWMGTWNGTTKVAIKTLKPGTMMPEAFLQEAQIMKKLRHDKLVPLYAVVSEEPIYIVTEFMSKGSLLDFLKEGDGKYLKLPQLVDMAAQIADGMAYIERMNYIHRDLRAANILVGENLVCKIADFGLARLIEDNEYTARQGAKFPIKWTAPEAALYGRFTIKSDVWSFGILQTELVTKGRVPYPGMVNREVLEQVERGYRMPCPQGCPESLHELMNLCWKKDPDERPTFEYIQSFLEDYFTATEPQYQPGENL

[7] = biological target: Misshapen-like kinase 1 (Homo sapiens) (UniProt Q8N4C8); assay: Inhibition of human MINK1 at 100 nM
Misshapen-like kinase 1 (Homo sapiens), sequence (Q8N4C8 whole entry, looked up): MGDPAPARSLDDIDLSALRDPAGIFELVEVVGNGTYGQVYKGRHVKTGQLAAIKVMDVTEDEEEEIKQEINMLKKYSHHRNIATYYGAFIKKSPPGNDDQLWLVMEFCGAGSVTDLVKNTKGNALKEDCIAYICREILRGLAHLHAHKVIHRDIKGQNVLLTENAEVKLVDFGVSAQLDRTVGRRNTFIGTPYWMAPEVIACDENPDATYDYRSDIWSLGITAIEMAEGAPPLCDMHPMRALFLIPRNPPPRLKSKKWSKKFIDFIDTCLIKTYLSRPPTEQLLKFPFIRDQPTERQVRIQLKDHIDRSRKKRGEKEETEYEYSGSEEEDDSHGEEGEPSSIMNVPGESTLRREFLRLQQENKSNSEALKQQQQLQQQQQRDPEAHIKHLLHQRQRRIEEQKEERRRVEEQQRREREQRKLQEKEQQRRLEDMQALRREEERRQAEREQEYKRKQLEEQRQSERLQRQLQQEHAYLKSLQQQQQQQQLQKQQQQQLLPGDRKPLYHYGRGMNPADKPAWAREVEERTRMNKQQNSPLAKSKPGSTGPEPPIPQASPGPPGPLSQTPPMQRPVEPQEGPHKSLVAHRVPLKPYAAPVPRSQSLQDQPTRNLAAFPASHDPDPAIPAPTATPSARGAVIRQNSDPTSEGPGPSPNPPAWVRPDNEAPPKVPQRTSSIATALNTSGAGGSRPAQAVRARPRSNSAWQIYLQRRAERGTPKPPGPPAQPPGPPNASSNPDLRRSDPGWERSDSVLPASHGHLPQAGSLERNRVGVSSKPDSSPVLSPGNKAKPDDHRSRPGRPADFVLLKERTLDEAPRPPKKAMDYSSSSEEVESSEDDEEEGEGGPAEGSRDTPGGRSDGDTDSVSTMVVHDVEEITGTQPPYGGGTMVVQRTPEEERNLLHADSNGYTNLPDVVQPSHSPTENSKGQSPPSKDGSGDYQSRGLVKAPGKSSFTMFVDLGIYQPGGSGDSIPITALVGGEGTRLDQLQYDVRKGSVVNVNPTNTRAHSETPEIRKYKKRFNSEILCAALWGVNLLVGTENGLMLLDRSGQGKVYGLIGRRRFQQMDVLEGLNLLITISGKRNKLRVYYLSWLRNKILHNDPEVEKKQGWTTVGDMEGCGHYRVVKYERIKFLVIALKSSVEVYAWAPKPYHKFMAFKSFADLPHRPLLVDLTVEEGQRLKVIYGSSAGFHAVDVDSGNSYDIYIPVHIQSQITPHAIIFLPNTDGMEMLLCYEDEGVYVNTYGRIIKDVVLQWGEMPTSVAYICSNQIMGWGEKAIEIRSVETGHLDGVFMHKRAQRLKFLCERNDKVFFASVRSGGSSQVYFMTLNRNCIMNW

[8] = biological target: Receptor tyrosine-protein kinase erbB-4 (Homo sapiens) (UniProt Q15303); assay: Inhibition of human HER4 at 100 nM
Receptor tyrosine-protein kinase erbB-4 (Homo sapiens), sequence (Q15303 whole entry): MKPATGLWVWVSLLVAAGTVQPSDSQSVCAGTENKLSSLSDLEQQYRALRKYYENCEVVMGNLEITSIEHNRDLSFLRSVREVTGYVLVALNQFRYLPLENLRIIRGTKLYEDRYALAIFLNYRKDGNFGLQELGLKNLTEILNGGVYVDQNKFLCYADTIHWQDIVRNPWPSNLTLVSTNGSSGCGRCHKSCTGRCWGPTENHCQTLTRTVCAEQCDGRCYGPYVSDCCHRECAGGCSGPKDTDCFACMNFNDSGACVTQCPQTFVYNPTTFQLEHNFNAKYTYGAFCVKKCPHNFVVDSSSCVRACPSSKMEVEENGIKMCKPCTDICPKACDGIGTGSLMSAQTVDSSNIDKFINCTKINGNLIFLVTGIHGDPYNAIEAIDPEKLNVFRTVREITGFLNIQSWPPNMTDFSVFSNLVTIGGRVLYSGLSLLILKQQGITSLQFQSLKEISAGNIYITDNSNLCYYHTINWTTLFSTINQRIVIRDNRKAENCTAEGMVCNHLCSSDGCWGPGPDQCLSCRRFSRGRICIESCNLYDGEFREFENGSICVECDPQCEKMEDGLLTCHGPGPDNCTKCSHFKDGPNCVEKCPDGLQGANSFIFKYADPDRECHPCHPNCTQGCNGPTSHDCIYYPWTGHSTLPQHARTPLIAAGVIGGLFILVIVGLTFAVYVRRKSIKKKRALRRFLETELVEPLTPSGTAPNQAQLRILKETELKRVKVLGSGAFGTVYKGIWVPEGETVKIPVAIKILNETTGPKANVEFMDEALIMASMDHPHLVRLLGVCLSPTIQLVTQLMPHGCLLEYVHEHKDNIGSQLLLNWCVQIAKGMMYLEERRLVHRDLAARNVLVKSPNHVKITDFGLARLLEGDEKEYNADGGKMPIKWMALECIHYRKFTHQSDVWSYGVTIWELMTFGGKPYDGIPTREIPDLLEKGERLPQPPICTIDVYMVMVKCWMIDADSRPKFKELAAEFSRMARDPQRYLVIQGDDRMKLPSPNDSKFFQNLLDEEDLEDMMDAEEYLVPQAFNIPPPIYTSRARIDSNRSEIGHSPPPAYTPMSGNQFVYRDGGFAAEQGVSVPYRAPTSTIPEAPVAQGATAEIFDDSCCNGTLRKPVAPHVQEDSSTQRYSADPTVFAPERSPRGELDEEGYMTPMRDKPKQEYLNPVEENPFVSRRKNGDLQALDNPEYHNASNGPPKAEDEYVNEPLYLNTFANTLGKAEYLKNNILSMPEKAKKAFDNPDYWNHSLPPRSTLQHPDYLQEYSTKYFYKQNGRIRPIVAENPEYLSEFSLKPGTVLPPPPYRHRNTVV

[9] = organism: Homo sapiens; details: at 100 nM
Description: Inhibition of human PKA at 100 nM

[10] = biological target: T2, Inhibitor of nuclear factor kappa-B kinase subunit beta (Homo sapiens) (UniProt O14920); details: at 100 nM
T2 sequence (whole entry): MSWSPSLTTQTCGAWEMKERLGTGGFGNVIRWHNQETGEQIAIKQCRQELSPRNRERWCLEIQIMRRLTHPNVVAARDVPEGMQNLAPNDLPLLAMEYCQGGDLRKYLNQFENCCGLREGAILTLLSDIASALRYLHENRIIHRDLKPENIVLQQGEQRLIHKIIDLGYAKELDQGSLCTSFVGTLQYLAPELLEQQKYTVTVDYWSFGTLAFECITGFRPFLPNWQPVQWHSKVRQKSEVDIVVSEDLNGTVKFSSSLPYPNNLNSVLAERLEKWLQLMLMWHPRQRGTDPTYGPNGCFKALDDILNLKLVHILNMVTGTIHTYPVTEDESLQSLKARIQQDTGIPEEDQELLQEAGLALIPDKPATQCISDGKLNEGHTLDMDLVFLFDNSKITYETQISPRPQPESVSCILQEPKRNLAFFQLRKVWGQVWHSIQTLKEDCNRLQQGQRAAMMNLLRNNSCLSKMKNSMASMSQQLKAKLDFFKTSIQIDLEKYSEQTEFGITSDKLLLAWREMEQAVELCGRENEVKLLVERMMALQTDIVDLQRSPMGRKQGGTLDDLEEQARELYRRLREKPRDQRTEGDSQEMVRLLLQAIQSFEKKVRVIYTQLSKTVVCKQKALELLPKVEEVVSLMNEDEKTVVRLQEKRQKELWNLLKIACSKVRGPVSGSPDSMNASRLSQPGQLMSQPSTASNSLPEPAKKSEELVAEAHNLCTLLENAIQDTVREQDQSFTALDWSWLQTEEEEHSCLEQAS
Description: Inhibition of human IKKb at 100 nM

[11] = biological target: T3, Inhibitor of nuclear factor kappa-B kinase subunit epsilon (Homo sapiens) (UniProt Q14164); details: at 100 nM
T3 sequence (whole entry): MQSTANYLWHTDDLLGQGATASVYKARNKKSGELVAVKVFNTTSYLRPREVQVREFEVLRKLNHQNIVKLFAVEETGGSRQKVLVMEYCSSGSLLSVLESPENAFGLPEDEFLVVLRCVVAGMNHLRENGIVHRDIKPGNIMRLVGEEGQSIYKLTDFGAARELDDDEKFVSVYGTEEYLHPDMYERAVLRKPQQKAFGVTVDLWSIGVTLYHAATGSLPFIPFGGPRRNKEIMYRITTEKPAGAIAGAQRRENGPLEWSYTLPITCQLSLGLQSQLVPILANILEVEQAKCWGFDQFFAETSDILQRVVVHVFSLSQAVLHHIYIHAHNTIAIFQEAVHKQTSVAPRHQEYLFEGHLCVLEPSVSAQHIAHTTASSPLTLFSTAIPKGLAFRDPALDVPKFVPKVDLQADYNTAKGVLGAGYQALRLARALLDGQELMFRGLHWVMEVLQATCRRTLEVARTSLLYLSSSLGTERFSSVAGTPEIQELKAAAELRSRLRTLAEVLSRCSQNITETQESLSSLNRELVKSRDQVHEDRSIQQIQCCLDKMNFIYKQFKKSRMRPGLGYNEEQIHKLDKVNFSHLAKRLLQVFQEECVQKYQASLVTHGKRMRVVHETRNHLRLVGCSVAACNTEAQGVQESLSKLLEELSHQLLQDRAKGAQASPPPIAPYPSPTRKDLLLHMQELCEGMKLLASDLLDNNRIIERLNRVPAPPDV
Description: Inhibition of human IKKepsilon at 100 nM

cGMP-dependent protein kinase, sequence (W7JX98 whole entry): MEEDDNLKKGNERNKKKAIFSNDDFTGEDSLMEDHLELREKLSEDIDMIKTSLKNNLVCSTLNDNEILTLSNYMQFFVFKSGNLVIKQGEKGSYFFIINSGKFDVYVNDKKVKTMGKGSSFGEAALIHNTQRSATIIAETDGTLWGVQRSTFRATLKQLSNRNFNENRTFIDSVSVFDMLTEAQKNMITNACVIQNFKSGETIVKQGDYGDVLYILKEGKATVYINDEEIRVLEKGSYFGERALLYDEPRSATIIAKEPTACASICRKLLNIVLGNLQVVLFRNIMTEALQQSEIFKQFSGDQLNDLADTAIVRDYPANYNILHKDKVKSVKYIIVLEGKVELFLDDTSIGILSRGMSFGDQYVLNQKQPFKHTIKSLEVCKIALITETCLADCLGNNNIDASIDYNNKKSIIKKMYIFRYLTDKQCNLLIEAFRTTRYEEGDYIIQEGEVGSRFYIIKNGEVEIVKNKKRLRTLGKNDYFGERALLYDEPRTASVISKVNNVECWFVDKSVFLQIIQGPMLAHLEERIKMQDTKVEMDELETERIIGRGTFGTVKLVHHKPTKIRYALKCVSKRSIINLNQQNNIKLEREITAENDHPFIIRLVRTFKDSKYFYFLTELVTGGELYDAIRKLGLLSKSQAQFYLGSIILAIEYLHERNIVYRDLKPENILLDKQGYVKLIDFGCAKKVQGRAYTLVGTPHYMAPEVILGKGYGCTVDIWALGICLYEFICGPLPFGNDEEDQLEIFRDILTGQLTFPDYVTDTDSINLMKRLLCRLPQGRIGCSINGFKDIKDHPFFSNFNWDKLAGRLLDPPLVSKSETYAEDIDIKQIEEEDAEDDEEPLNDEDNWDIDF

Structure (SMILES)	IC50 [1]	EC50 [2]	other results
CN(C)Cc1ccn2c(-c3ccnc(N)n3)c(-c3ccc(F)cc3)nc2c1	3 nM	400 nM	–
CN1CCC(c2nc(-c3ccc(F)cc3)c(-c3ccncn3)s2)C1 (stereo not given)	6 nM	144 nM	–
Fc1ccc(-c2nc(C3CCNCC3)sc2-c2ccnc(Nc3ccc(N4CCNCC4)cc3)n2)cc1	0.5 nM	73 nM	–
CN1CCC(c2nc(-c3ccc(F)cc3)c(-c3ccnc(Nc4ccc(N5CCN(C)CC5)cc4)n3)s2)CC1	1 nM	155 nM	–
CN1CCC(c2nc(-c3cccc(S(C)(=O)=O)c3)c(-c3ccnc(NC4CCOCC4)n3)s2)CC1	9 nM	1560 nM	–
CNc1nccc(-c2sc(C3CCN(C)CC3)nc2-c2ccc(F)cc2)n1	15 nM	1490 nM	–
CN1CCC(c2cc(-c3ccncc3)c(-c3ccc(F)cc3)[nH]2)CC1	6 nM	450 nM	–
CN1CCC(c2nc(-c3cccc(S(C)(=O)=O)c3)c(-c3ccnc(NCC4CC4)n3)s2)CC1	6 nM	1330 nM	–
CN1CCC(c2nc(-c3ccc(F)cc3)c(-c3ccnc(N)n3)s2)CC1	17 nM	1810 nM	–
CN1CCC(c2nc(-c3ccc(F)cc3)c(-c3ccnc(Nc4ccc(N5CCNCC5)cc4)n3)s2)CC1	–	–	inhibition [3]: > 90%; inhibition [4]: > 90%; inhibition [5]: > 90%; inhibition [6]: > 90%; inhibition [7]: > 90%; inhibition [8]: > 90%; inhibition [9]: < 70%; inhibition [10]: < 70%; inhibition [11]: < 70%
CN1CCC(c2nc(-c3cccc(S(C)(=O)=O)c3)c(-c3ccnc(NC4CC4)n3)s2)CC1	17 nM	–	–
CN1CCC(c2nc(C3CC3)c(-c3ccnc(Nc4ccc(N5CCNCC5)cc4)n3)s2)CC1	47 nM	90 nM	–
CN1CCC(c2nc(-c3cccc(S(C)(=O)=O)c3)c(-c3ccnc(N)n3)s2)CC1	33 nM	4570 nM	–
CN1CCC(c2nc(-c3ccc(F)cc3)c(-c3ccnc(Nc4ccc(C5CCNCC5)cc4)n3)s2)CC1	0.3 nM	25 nM	–
Cc1nc(C2CCN(C)CC2)sc1-c1ccnc(Nc2ccc(N3CCNCC3)cc2)n1	149 nM	–	–
